Assay results reported in the NIST ThermoML archive (doi:10.1016/j.tca.2011.02.002).

Key:
[1] = xn = mol fraction of the nth substance listed; details: 101 kPa, Liquid; for mass density: Vibrating tube method
[2] = excess molar enthalpy (molar enthalpy of mixing); xn = mol fraction of the nth substance listed; details: 308.15 K, 101 kPa, Liquid, 2-drop calorimeter (CSC 4600_

c1ccncc1 [pyridine] + C1CCOCC1
[1]
Details | mass density, 298.15 K [kg/m3] | mass density, 303.15 K [kg/m3] | mass density, 308.15 K [kg/m3] | speed of sound, 298.15 K [m/s] | speed of sound, 303.15 K [m/s] | speed of sound, 308.15 K [m/s]
x2 = 0 | 978.249 | 973.224 | 968.166 | 1417.6 | 1397.4 | 1377.1
x2 = 0.0427 | 973.663 | 968.634 | 963.658 | 1411.9 | 1391.4 | 1370.9
x2 = 0.1021 | 967.309 | 962.276 | 957.232 | 1403.6 | 1382.9 | 1362.3
x2 = 0.1883 | 958.157 | 953.12 | 948.063 | 1391.4 | 1370.2 | 1349.4
x2 = 0.2415 | 952.565 | 947.532 | 942.634 | 1383.7 | 1362.2 | 1341.1
x2 = 0.2853 | 948.002 | 942.969 | 938.037 | 1377.4 | 1355.6 | 1334.3
x2 = 0.3438 | 941.972 | 936.936 | 931.957 | 1368.8 | 1346.7 | 1325.4
x2 = 0.3742 | 938.871 | 933.829 | 928.814 | 1364.2 | 1342.1 | 1320.6
x2 = 0.4263 | 933.597 | 928.553 | 923.491 | 1356.5 | 1334 | 1312.5
x2 = 0.4642 | 929.793 | 924.748 | 919.649 | 1350.7 | 1328.2 | 1306.7
x2 = 0.5364 | 922.65 | 917.601 | 912.425 | 1339.8 | 1317.1 | 1295.4
x2 = 0.5721 | 919.167 | 914.108 | 908.895 | 1334.4 | 1311.6 | 1289.8
x2 = 0.6283 | 913.73 | 908.661 | 903.408 | 1325.8 | 1302.9 | 1281.1
x2 = 0.6872 | 908.097 | 903.027 | 897.739 | 1316.9 | 1293.9 | 1271.9
x2 = 0.7336 | 903.711 | 898.628 | 893.335 | 1309.8 | 1286.9 | 1264.7
x2 = 0.7823 | 899.149 | 894.056 | 888.752 | 1302.5 | 1279.5 | 1257.3
x2 = 0.8351 | 894.248 | 889.143 | 883.845 | 1294.4 | 1271.5 | 1249.2
x2 = 0.8752 | 890.543 | 885.431 | 880.16 | 1288.5 | 1265.4 | 1243.1
x2 = 0.9354 | 885.027 | 879.898 | 874.668 | 1279.5 | 1256.4 | 1234.1

[2]
Details | excess molar enthalpy [kcal/mol]
x2 = 0.0552 | 0.00315
x2 = 0.1006 | 0.00626
x2 = 0.1525 | 0.0101
x2 = 0.2014 | 0.0141
x2 = 0.2915 | 0.0215
x2 = 0.3462 | 0.0254
x2 = 0.3871 | 0.029
x2 = 0.4217 | 0.0314
x2 = 0.4853 | 0.0347
x2 = 0.5363 | 0.0376
x2 = 0.5802 | 0.0387
x2 = 0.6461 | 0.039
x2 = 0.6864 | 0.0391
x2 = 0.7344 | 0.0374
x2 = 0.7856 | 0.0341
x2 = 0.8315 | 0.0298
x2 = 0.8911 | 0.0219
x2 = 0.9347 | 0.0139
